# According to patent US8691865B2 (AbbVie Inc., priority 2008, dated 2014):
# Molecular target: human Cav2.2 (Homo sapiens, UniProt Q00975)
# Test: Assessment of calcium channel activity using FLIPR (Ca2+ influx in IMR32 cells)
# Format: cell-based
# Conditions: not given
# How it was run: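 Human neuroblastoma IMR32 cells were seeded at 1−1.2×10^5 cells/well and cultured 48 h at 37 °C before FLIPR calcium influx measurement. Percent inhibition at each concentration was calculated against the no-inhibitor signal, and IC50 came from sigmoidal dose-response fits.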
# Sequence of human Cav2.2 (Q00975 whole entry): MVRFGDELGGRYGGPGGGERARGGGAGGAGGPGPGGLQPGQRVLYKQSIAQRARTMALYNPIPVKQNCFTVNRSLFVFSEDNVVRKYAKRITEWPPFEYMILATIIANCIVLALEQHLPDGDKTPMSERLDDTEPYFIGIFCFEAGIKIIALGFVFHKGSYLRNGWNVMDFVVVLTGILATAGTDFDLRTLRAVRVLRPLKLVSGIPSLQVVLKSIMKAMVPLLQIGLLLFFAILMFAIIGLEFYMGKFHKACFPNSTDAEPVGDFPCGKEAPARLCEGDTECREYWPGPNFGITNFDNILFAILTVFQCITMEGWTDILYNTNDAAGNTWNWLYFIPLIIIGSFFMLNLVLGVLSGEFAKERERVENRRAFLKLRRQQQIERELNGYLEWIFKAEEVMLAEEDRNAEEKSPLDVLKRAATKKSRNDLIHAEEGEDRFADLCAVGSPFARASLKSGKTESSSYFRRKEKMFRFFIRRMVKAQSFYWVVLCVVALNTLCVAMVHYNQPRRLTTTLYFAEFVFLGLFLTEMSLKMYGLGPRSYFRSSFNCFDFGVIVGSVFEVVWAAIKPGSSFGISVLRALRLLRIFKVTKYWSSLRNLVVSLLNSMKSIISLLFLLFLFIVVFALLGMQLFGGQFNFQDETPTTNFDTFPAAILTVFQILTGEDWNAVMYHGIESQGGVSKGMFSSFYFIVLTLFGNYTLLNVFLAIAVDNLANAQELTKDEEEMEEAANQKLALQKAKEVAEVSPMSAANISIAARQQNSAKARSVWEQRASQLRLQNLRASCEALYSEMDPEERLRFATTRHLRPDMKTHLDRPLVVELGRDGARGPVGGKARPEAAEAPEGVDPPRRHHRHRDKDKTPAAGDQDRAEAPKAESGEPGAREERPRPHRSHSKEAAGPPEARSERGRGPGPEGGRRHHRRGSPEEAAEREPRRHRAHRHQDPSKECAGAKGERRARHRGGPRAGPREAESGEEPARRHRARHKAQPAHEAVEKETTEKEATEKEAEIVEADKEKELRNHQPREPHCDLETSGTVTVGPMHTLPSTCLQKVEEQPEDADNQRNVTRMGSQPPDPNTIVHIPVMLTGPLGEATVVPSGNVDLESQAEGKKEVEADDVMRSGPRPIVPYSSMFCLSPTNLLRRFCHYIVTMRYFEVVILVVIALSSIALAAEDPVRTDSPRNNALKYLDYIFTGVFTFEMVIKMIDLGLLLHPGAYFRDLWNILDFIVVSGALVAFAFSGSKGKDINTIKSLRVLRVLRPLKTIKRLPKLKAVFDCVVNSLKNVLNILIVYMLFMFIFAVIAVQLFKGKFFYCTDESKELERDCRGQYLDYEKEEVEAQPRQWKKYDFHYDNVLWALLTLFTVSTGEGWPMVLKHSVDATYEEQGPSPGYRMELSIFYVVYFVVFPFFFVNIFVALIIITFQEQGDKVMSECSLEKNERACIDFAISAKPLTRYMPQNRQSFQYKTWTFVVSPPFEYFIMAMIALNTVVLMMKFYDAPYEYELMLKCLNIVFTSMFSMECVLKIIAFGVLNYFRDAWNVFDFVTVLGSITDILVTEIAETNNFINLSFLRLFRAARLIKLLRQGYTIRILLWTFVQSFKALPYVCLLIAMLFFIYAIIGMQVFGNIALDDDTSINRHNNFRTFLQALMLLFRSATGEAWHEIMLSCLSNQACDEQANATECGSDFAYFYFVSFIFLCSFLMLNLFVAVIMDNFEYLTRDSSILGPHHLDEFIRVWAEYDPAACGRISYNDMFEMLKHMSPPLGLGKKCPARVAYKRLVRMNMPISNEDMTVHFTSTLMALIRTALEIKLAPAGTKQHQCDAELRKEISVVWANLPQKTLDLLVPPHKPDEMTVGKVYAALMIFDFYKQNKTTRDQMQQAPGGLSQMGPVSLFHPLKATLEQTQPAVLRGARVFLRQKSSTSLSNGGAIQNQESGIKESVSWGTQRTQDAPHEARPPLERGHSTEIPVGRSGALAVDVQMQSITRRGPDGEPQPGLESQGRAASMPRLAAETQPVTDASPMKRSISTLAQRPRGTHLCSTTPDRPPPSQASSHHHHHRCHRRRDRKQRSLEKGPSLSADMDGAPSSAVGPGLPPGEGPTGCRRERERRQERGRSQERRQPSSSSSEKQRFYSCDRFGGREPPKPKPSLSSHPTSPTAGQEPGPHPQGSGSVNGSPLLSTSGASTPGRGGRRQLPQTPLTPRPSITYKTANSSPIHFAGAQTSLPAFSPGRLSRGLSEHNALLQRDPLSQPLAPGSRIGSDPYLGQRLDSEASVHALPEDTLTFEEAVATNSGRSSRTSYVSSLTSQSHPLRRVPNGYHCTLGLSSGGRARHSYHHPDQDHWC
# Sequence of human Cav2.2 (P54289 25-956 partner limits assumed): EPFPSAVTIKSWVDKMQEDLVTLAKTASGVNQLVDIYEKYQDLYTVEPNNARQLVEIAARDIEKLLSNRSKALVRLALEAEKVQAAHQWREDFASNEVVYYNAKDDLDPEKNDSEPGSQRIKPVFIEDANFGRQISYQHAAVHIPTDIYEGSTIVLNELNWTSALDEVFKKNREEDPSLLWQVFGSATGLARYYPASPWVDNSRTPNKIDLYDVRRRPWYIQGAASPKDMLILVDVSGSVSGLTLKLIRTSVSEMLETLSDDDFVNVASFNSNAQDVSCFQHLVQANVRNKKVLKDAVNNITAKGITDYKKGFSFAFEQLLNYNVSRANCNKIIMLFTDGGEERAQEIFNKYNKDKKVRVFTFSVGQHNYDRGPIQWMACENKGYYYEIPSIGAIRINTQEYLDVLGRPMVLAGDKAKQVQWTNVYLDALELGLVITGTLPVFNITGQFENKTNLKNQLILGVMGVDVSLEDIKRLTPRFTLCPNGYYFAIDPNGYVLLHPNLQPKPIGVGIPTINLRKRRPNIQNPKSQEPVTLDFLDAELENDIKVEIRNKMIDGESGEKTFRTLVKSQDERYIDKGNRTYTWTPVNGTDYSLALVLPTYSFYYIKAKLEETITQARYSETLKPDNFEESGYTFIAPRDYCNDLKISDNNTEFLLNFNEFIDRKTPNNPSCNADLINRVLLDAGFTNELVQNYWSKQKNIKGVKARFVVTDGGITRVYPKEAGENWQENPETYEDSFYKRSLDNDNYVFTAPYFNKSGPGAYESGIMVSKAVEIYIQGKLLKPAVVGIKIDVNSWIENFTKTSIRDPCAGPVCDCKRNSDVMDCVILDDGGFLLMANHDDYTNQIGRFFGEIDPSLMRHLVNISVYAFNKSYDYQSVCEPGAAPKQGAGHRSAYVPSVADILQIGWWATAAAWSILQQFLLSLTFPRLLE
# Sequence of human Cav2.2 (P54289 957-1103 partner limits assumed): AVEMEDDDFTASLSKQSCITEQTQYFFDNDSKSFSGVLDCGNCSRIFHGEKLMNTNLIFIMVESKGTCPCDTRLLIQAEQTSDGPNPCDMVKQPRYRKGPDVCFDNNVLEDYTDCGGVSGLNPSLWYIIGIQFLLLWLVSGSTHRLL
# Sequence of human Cav2.2 (P54284 whole entry partner): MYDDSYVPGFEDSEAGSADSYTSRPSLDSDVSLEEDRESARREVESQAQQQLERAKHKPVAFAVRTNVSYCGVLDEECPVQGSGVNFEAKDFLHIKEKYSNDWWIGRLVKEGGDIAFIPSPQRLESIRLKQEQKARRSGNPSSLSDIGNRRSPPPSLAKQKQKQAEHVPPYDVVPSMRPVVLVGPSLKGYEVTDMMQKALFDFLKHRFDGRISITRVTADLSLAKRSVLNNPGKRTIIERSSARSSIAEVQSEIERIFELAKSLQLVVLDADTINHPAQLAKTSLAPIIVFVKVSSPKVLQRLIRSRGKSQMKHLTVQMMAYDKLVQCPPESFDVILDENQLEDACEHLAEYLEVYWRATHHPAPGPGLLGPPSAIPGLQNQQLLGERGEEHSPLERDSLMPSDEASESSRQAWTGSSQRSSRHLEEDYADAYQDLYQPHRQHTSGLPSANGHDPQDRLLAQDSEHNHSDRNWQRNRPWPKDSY
row,Molecule,IC50 [µM]
1,"O=C(N[C@@H]1CC[C@H]2CN(CCCCCC(c3ccc(F)cc3)c3ccc(F)cc3)C[C@H]21)C(C1CCCCC1)C1CCCCC1 [Example 78, N-{(3aS,4R,6aR)-2-[6,6-bis(4-fluorophenyl)hexyl]octahydrocyclopenta[c]pyrrol-4-yl}-2,2-dicyclohexylacetamide]",1.34
2,"CCC[C@H](NC)C(=O)N(C)[C@H]1CC[C@@H]2CN(S(=O)(=O)c3ccc(C(F)(F)F)cc3)C[C@@H]21 [Example 438, N^1,N^2-dimethyl-N^1-((3aR,4S,6aS)-2-{[4-(trifluoromethyl)phenyl]sulfonyl}octahydrocyclopenta[c]pyrrol-4-yl)-L-norvalinamide]",5.7
3,"O=C(N[C@H]1CC[C@H]2CN(Cc3ccccc3C(F)(F)F)C[C@H]21)C(C1CCCCC1)C1CCCCC1 [Example 60, 2,2-dicyclohexyl-N-{(3aS,4S,6aR)-2-[2-(trifluoromethyl)benzyl]octahydrocyclopenta[c]pyrrol-4-yl}acetamide]",2.43

# Further lines, results first:
row,IC50 [µM],Molecule
1,12.3,"CN[C@H](C(=O)N[C@H]1CC[C@@H]2CN(c3ccc(C(F)(F)F)cn3)C[C@@H]21)C(C)C [Example 763, N^2-methyl-N-{(3aR,4S,6aS)-2-[5-(trifluoromethyl)pyridin-2-yl]octahydrocyclopenta[c]pyrrol-4-yl}-L-valinamide]"
2,8.15,"Fc1ccc2[nH]c(CN[C@H]3CC[C@@H]4CN(c5ccc(OC(F)(F)F)cc5)C[C@@H]43)cc2c1 [Example 716, (3aR,4S,6aS)-N-[(5-fluoro-1H-indol-2-yl)methyl]-2-[4-(trifluoromethoxy)phenyl]octahydrocyclopenta[c]pyrrol-4-amine]"
3,14,"O=C(N[C@H]1CC[C@@H]2CN(c3ccc(C(F)(F)F)cn3)C[C@@H]21)[C@@H]1C[C@@H](F)CN1 [Example 780, (4R)-4-fluoro-N-{(3aR,4S,6aS)-2-[5-(trifluoromethyl)pyridin-2-yl]octahydrocyclopenta[c]pyrrol-4-yl}-L-prolinamide]"
4,> 30,"CCC[C@H](NC(C)C)C(=O)N[C@@H]1CC[C@H]2CN(Cc3ccccc3)C[C@H]21 [Example 495, N^1-[(3aS,4R,6aR)-2-benzyloctahydrocyclopenta[c]pyrrol-4-yl]-N^2-isopropyl-L-norvalinamide]"
5,1,"CC(C)C[C@@H](O)C(=O)N[C@H]1CC[C@@H]2CN(c3cccc(C(F)(F)F)n3)C[C@@H]21 [Example 578, (2R)-2-hydroxy-4-methyl-N-{(3aR,4S,6aS)-2-[6-(trifluoromethyl)pyridin-2-yl]octahydrocyclopenta[c]pyrrol-4-yl}pentanamide]"
6,1.71,"FC(F)(F)c1cccc(N2C[C@H]3CC[C@H](NCc4nc(-c5ccccc5)c[nH]4)[C@H]3C2)n1 [Example 746, (3aR,4S,6aS)-N-[(4-phenyl-1H-imidazol-2-yl)methyl]-2-[6-(trifluoromethyl)pyridin-2-yl]octahydrocyclopenta[c]pyrrol-4-amine]"
7,2,"CN[C@@H](CC(C)C)C(=O)N[C@@H]1CC[C@H]2CN(c3ccc(C(F)(F)F)cc3)C[C@H]21 [Example 740, N^2-methyl-N-{(3aS,4R,6aR)-2-[4-(trifluoromethyl)phenyl]octahydrocyclopenta[c]pyrrol-4-yl}-L-leucinamide]"
8,> 30,"O=C(N[C@H]1CC[C@@H]2CN(c3ccc(OC(F)(F)F)cc3)C[C@@H]21)[C@@H]1C[C@@H](F)CN1 [Example 631, (4R)-4-fluoro-N-{(3aR,4S,6aS)-2-[4-(trifluoromethoxy)phenyl]octahydrocyclopenta[c]pyrrol-4-yl}-L-prolinamide]"
9,1.55,"COc1ccc2[nH]c(CN[C@H]3CC[C@@H]4CN(c5cccc(C(F)(F)F)n5)C[C@@H]43)c(C)c2c1 [Example 668, (3aR,4S,6aS)-N-[(5-methoxy-3-methyl-1H-indol-2-yl)methyl]-2-[6-(trifluoromethyl)pyridin-2-yl]octahydrocyclopenta[c]pyrrol-4-amine]"

# Same assay, conditions: read-out: IC50 (μM) or percent inhibition (* indicates 3 minute incubation, otherwise 60 minute); IC50; 60 minute pre-incubation with compound; IMR32 cells, 80 mM KCl depolarization
row,Molecule,IC50 [µM]
1,"CC(C)C[C@@H](C(=O)N[C@@H]1CC[C@H]2CN(Cc3cccc(C(F)(F)F)c3)C[C@H]21)N(C)C(=O)OC(C)(C)C [Example 155, N^2-(tert-butyloxycarbonyl)-N^2-methyl-N^1-{(3aS,4R,6aR)-2-[3-(trifluoromethyl)benzyl]octahydrocyclopenta[c]pyrrol-4-yl}-L-leucinamide]",0.69
2,"O=S(=O)(c1cccc(C(F)(F)F)c1)N1C[C@@H]2CC[C@@H](NC(c3ccccc3)c3ccccc3)[C@@H]2C1 [Example 467, (3aS,4R,6aR)-N-benzhydryl-2-{[3-(trifluoromethyl)phenyl]sulfonyl}octahydrocyclopenta[c]pyrrol-4-amine]",3.5
3,"CC(C)C[C@H](NS(=O)(=O)C1CC1)C(=O)N[C@@H]1CC[C@H]2CN(Cc3cccc(C(F)(F)F)c3)C[C@H]21 [Example 172, N^2-(cyclopropylsulfonyl)-N^1-{(3aS,4R,6aR)-2-[3-(trifluoromethyl)benzyl]octahydrocyclopenta[c]pyrrol-4-yl}-L-leucinamide]",2.03
4,"CN[C@H](CC(C)C)C(=O)N[C@H]1CC[C@H]2CN(Cc3cccc(C(F)(F)F)c3)C[C@H]21 (relative stereo) [Example 160, N^2-methyl-N^1-{(3aS*,4S*,6aR*)-2-[3-(trifluoromethyl)benzyl]octahydrocyclopenta[c]pyrrol-4-yl}-D-leucinamide]",3.78
5,"O=C(N[C@H]1CC[C@@H]2CN(Cc3ccccc3)C[C@@H]21)C(c1ccccc1)C1CCCC1 (stereo partly drawn) [Example 34, N-[(3aR,4S,6aS)-2-benzyloctahydrocyclopenta[c]pyrrol-4-yl]-2-cyclopentyl-2-phenylacetamide]",1.51
6,"(3aR,4S,6aS)-N-[(5-fluoro-1-methyl-1H-indol-2-yl)methyl]-2-[6-(trifluoromethyl)pyridin-2-yl]octahydrocyclopenta[c]pyrrol-4-amine [Example 748]",0.81
7,"CC(C)C[C@H](NCC(C)(C)C)C(=O)N[C@H]1CC[C@@H]2CN(Cc3ccccc3)C[C@@H]21 [Example 244, N^1-[(3aR,4S,6aS)-2-benzyloctahydrocyclopenta[c]pyrrol-4-yl]-N^2-neopentyl-L-leucinamide]",9.11
8,"COc1ccccc1CN1C[C@H]2CC[C@H](NC(=O)C(c3ccccc3)C(C)C)[C@H]2C1 (stereo partly drawn) [Example 94, N-[(3aR,4S,6aS)-2-(2-methoxybenzyl)octahydrocyclopenta[c]pyrrol-4-yl]-3-methyl-2-phenylbutanamide]",2.33
9,"Cc1ccc(CN2C[C@@H]3CC[C@H](NC(=O)C(C4CCCCC4)C4CCCCC4)[C@@H]3C2)cc1 [Example 62, 2,2-dicyclohexyl-N-[(3aS,4S,6aR)-2-(4-methylbenzyl)octahydrocyclopenta[c]pyrrol-4-yl]acetamide]",1.64
10,"O=C(N[C@@H]1CC[C@H]2CN(Cc3ccccc3)C[C@H]21)C(c1ccccc1)C1CCCC1 (stereo partly drawn) [Example 17, N-[(3aS,4R,6aR)-2-benzyloctahydrocyclopenta[c]pyrrol-4-yl]-2-cyclopentyl-2-phenylacetamide]",1.57
11,"CC[C@H](C(=O)N[C@H]1CC[C@@H]2CN([C@@H](C)c3ccccc3)C[C@@H]21)c1ccccc1 [Example 211, (2S)-2-phenyl-N-{(3aR,4S,6aS)-2-[(1S)-1-phenylethyl]octahydrocyclopenta[c]pyrrol-4-yl}butanamide]",3.82
12,"O=C(CCCC(c1ccc(F)cc1)c1ccc(F)cc1)N[C@H]1CC[C@H]2CN(Cc3cccc(C(F)(F)F)c3)C[C@H]21 (relative stereo) [Example 132, 5,5-bis(4-fluorophenyl)-N-{(3aS*,4S*,6aR*)-2-[3-(trifluoromethyl)benzyl]octahydrocyclopenta[c]pyrrol-4-yl}pentanamide]",1.13
13,"CC(C)C[C@@H](NS(C)(=O)=O)C(=O)N[C@@H]1CC[C@H]2CN(Cc3cccc(C(F)(F)F)c3)C[C@H]21 [Example 171, N^2-(methylsulfonyl)-N^1-{(3aS,4R,6aR)-2-[3-(trifluoromethyl)benzyl]octahydrocyclopenta[c]pyrrol-4-yl}-D-leucinamide]",6.16
14,"CC(C)C(C(=O)N[C@H]1CC[C@@H]2CN(Cc3cccc(F)c3)C[C@@H]21)c1ccccc1 (stereo partly drawn) [Example 87, N-[(3aR,4S,6aS)-2-(3-fluorobenzyl)octahydrocyclopenta[c]pyrrol-4-yl]-3-methyl-2-phenylbutanamide]",3.14
15,"CC(C)C(C(=O)N[C@@H]1CC[C@H]2CN(Cc3cccc(C(F)(F)F)c3)C[C@H]21)c1ccccc1 (stereo partly drawn) [Example 82, 3-methyl-2-phenyl-N-{(3aS,4R,6aR)-2-[3-(trifluoromethyl)benzyl]octahydrocyclopenta[c]pyrrol-4-yl}butanamide]",1.48
16,"CC(C)C[C@H](N)C(=O)N[C@@H]1CC[C@H]2CN(Cc3cccc(C(F)(F)F)c3)C[C@H]21 (relative stereo) [Example 161, N^1-{(3aS*,4R*,6aR*)-2-[3-(trifluoromethyl)benzyl]octahydrocyclopenta[c]pyrrol-4-yl}-L-leucinamide]",3.89

# Results, then the molecule that gave them:
row,IC50 [µM],Molecule
1,9.68,"CCC[C@H](NC)C(=O)N[C@H]1CC[C@@H]2CN(S(=O)(=O)c3cccs3)C[C@@H]21 [Example 533, N^2-methyl-N^1-[(3aR,4S,6aS)-2-(thien-2-ylsulfonyl)octahydrocyclopenta[c]pyrrol-4-yl]-L-norvalinamide]"
2,1.71,"CCC[C@H](NC1CCCC1)C(=O)N[C@H]1CC[C@@H]2CN(S(=O)(=O)c3ccc(C(F)(F)F)cc3)C[C@@H]21 [Example 506, N^2-cyclopentyl-N^1-((3aR,4S,6aS)-2-{[4-(trifluoromethyl)phenyl]sulfonyl}octahydrocyclopenta[c]pyrrol-4-yl)-L-norvalinamide]"
3,1.59,"CC(C)[C@@H](CC(=O)N[C@H]1CC[C@@H]2CN(S(=O)(=O)c3cccc(C(F)(F)F)c3)C[C@@H]21)N(C)C [Example 498, (3R)-3-(dimethylamino)-4-methyl-N-((3aR,4S,6aS)-2-{[3-(trifluoromethyl)phenyl]sulfonyl}octahydrocyclopenta[c]pyrrol-4-yl)pentanamide]"
